pIC50: −log10 of the molar value. Where a SMILES comes first, the peptide text is derived from it. [ ]: non-standard residue; d: D form. hLeu = CC(C)CC[C@H](N)C(=O)O
molecular target: T1, Interleukin-23 receptor (Homo sapiens, UniProt Q5VWK5); assay: Inhibition of interleukin-23 binding to human interleukin-23 receptor incubated for 2 hrs by competitive binding ELISA
T1 sequence (Q5VWK5 whole entry): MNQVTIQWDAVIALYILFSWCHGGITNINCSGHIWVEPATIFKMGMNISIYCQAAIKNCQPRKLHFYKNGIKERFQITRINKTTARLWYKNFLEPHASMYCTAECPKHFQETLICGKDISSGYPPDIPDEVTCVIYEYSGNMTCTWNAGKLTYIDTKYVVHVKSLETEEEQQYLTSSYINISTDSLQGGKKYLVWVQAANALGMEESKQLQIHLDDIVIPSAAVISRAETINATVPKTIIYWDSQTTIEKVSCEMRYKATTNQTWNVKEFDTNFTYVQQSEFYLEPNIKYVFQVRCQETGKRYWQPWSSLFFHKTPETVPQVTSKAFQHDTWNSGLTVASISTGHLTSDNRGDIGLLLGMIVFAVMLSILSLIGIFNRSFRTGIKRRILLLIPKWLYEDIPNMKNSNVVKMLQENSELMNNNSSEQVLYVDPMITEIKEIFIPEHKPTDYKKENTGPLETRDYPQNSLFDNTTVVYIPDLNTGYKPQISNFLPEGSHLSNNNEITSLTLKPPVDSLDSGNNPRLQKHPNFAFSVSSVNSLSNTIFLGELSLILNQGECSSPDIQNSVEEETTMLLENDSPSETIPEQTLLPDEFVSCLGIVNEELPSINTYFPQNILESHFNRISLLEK

Q: `CC(=O)N[C@H](CCCCNC(=O)COCC(=O)NCCCC[C@@H](NC(C)=O)C(=O)N[C@@H](CS)C(=O)N[C@@H](C)C(=O)N[C@@H](CC(=O)O)C(=O)N[C@@H](Cc1c[nH]c2ccccc12)C(=O)N[C@H](C(=O)N[C@@H](CS)C(=O)N[C@@H](Cc1ccc(O)cc1)C(=O)N[C@@H](Cc1c[nH]c2ccccc12)C(=O)N[C@@H](Cc1cnc[nH]1)C(=O)N[C@H](C(=O)N[C@@H](Cc1ccccc1)C(=O)NCC(=O)O)[C@@H](C)O)C(C)C)C(=O)N[C@@H](CS)C(=O)N[C@@H](C)C(=O)N[C@@H](CC(=O)O)C(=O)N[C@@H](Cc1c[nH]c2ccccc12)C(=O)N[C@H](C(=O)N[C@@H](CS)C(=O)N[C@@H](Cc1ccc(O)cc1)C(=O)N[C@@H](Cc1c[nH]c2ccccc12)C(=O)N[C@@H](Cc1cnc[nH]1)C(=O)N[C@H](C(=O)N[C@@H](Cc1ccccc1)C(=O)NCC(=O)O)[C@@H](C)O)C(C)C` was tested. Which pIC50 did it give?
A: Its pIC50 is < 5.00.

Q: With `CC(=O)N[C@@H](CS)C(=O)N[C@@H](C)C(=O)N[C@@H](CC(=O)O)C(=O)N[C@@H](Cc1c[nH]c2ccccc12)C(=O)N[C@H](C(=O)N[C@@H](CS)C(=O)N[C@@H](Cc1ccc(O)cc1)C(=O)N[C@@H](Cc1c[nH]c2ccccc12)C(=O)N[C@@H](Cc1cnc[nH]1)C(=O)N[C@H](C(=O)N[C@@H](Cc1ccc(O)cc1)C(=O)NCC(N)=O)[C@@H](C)O)C(C)C` as the compound, how does the pIC50 read?
A: The pIC50 was > 6.30.

Q: `CC(=O)N[C@@H](CS)C(=O)N[C@@H](CCC(N)=O)C(=O)N[C@H](C(=O)N[C@@H](Cc1c[nH]c2ccccc12)C(=O)N[C@@H](CCC(N)=O)C(=O)N[C@@H](CS)C(=O)N[C@@H](Cc1ccc(O)cc1)C(=O)N[C@@H](Cc1c[nH]c2ccccc12)C(=O)N[C@@H](CCCNC(=N)N)C(=O)N[C@@H](CCC(=O)O)C(=O)N[C@@H](CC(N)=O)C(=O)NCC(=O)NCCOCC(=O)N[C@H](CCCCN)C(N)=O)[C@@H](C)O` was tested. Which pIC50 did it give?
A: The pIC50 was > 6.30.

Q: `CCCCCCCC(=O)N[C@H](C(=O)N[C@@H](CCC(N)=O)C(=O)N[C@H](C(=O)N[C@@H](Cc1c[nH]c2ccccc12)C(=O)N[C@@H](CCC(N)=O)C(=O)N[C@H](C(=O)N[C@@H](Cc1ccc(OC)cc1)C(=O)N[C@@H](Cc1ccc2ccccc2c1)C(=O)N[C@@](C)(CCCCN)C(=O)N[C@@H](CCCCNC(C)=O)C(=O)N[C@@H](CC(N)=O)C(=O)NCC(N)=O)C(C)(C)S)[C@@H](C)O)C(C)(C)S` was tested. Which pIC50 did it give?
A: The pIC50 was 6.00 to 7.00.

Q: With `CC(=O)N[C@@H](CS)C(=O)N[C@@H](C)C(=O)N[C@@H](CC(=O)O)C(=O)N[C@@H](Cc1c[nH]c2ccccc12)C(=O)N[C@H](C(=O)N[C@@H](CS)C(=O)N[C@@H](Cc1ccc(O)cc1)C(=O)N[C@@H](Cc1c[nH]c2ccccc12)C(=O)N[C@@H](Cc1cnc[nH]1)C(=O)N[C@H](C(=O)N[C@@H](Cc1ccccc1)C(=O)NCC(=O)N[C@@H](CCC(=O)O)C(=O)N[C@@H](CCCNC(=N)N)C(N)=O)[C@@H](C)O)C(C)C` as the compound, how does the pIC50 read?
A: Its pIC50 is > 6.30.

Q: `CC(=O)N[C@@H](CS)C(=O)N[C@@H](CCC(N)=O)C(=O)N[C@H](C(=O)N[C@@H](Cc1c[nH]c2ccccc12)C(=O)N[C@@H](CCC(N)=O)C(=O)N[C@@H](CS)C(=O)N[C@@H](Cc1ccc(O)cc1)C(=O)N[C@H](CC(=O)N[C@@H](CCCNC(=N)N)C(=O)N[C@H](C(=O)N[C@@H](CC(N)=O)C(=O)NCC(=O)NCCOCC(=O)N[C@H](CCCCN)C(N)=O)C(C)C)Cc1ccc(O)cc1)[C@@H](C)O` was tested. Which pIC50 did it give?
A: The pIC50 was < 4.52.

Q: `CC(=O)N[C@@H](CS)C(=O)N[C@@H](CCCNC(=N)N)C(=O)N[C@@H](CC(=O)O)C(=O)N[C@@H](Cc1c[nH]c2ccccc12)C(=O)N[C@@H](CCC(N)=O)C(=O)N[C@@H](CS)C(=O)N[C@@H](Cc1ccc(O)cc1)C(=O)N[C@@H](Cc1c[nH]c2ccccc12)C(=O)N[C@@H](Cc1cnc[nH]1)C(=O)N[C@@H](CCCCN)C(=O)N[C@@H](Cc1ccccc1)C(=O)NCC(=O)NCCOCCC(=O)N[C@H](CCCCN)C(=O)O` was tested. Which pIC50 did it give?
A: The pIC50 was > 6.30.

Q: With `CC[C@H](C)[C@H](NC(=O)[C@H](Cc1cnc[nH]1)NC(=O)[C@H](Cc1c[nH]c2ccccc12)NC(=O)[C@H](Cc1ccc(O)cc1)NC(=O)[C@H](CS)NC(=O)[C@H](CCC(=O)O)NC(=O)[C@H](Cc1c[nH]c2ccccc12)NC(=O)[C@H](CC(=O)O)NC(=O)[C@H](CO)NC(=O)[C@@H](N)CS)C(=O)N[C@@H](Cc1ccccc1)C(=O)NCC(N)=O` (H-CSDWECYWHIFG-NH2) as the compound, how does the pIC50 read?
A: Its pIC50 is < 6.00.

Q: `CC(C)[C@H](NC(=O)[C@H](Cc1c[nH]c2ccccc12)NC(=O)[C@H](CC(=O)O)NC(=O)[C@H](C)NC(=O)[C@@H](N)CS)C(=O)N[C@@H](CS)C(=O)N[C@@H](Cc1ccc(O)cc1)C(=O)N1Cc2ccccc2C[C@H]1C(=O)N[C@@H](Cc1cnc[nH]1)C(=O)N[C@H](C(=O)N[C@@H](Cc1ccccc1)C(=O)NCC(N)=O)[C@@H](C)O` was tested. Which pIC50 did it give?
A: The pIC50 was < 6.00.

Q: `CC(=O)N[C@@H](CS)C(=O)N[C@@H](C)C(=O)N[C@H](C(=O)N[C@@H](Cc1c[nH]c2ccccc12)C(=O)N[C@@H](CCC(N)=O)C(=O)N[C@@H](CS)C(=O)N[C@@H](Cc1ccc(O)cc1)C(=O)N[C@@H](Cc1c[nH]c2ccccc12)C(=O)N[C@@H](Cc1cnc[nH]1)C(=O)N[C@@H](CCC(=O)O)C(=O)N[C@@H](Cc1ccc(O)cc1)C(=O)NCC(N)=O)[C@@H](C)O` (Ac-CATWQCYWHEYG-NH2) was tested. Which pIC50 did it give?
A: Its pIC50 is > 6.30.

Q: With `CC(=O)N[C@@H](CS)C(=O)N[C@@H](C)C(=O)N[C@@H](CC(=O)O)C(=O)N[C@@H](Cc1c[nH]c2ccccc12)C(=O)N[C@H](C(=O)N[C@@H](CS)C(=O)N[C@@H](Cc1ccc(O)cc1)C(=O)N[C@@H](Cc1cccc2ccccc12)C(=O)N[C@@H](Cc1cnc[nH]1)C(=O)NC(C)(C)C(=O)N[C@@H](Cc1ccccc1)C(=O)NCC(N)=O)C(C)C` as the compound, how does the pIC50 read?
A: Its pIC50 is < 6.00.

Q: `CC(C)[C@H](NC(=O)C[C@H](Cc1c[nH]c2ccccc12)NC(=O)[C@H](CC(=O)O)NC(=O)[C@H](C)NC(=O)[C@@H](N)CS)C(=O)N[C@@H](CS)C(=O)N[C@@H](Cc1ccc(O)cc1)C(=O)N[C@@H](Cc1c[nH]c2ccccc12)C(=O)N[C@@H](Cc1cnc[nH]1)C(=O)N[C@H](C(=O)N[C@@H](Cc1ccccc1)C(=O)NCC(N)=O)[C@@H](C)O` was tested. Which pIC50 did it give?
A: The pIC50 was < 6.00.

Q: With `CC(=O)N[C@@H](CS)C(=O)N[C@@H](CCCCN)C(=O)N[C@H](C(=O)N[C@@H](Cc1c[nH]c2ccccc12)C(=O)N[C@H](C(=O)N[C@@H](CS)C(=O)N[C@@H](Cc1ccc(O)cc1)C(=O)N[C@@H](Cc1c[nH]c2ccccc12)C(=O)N[C@@H](Cc1cnc[nH]1)C(=O)N[C@@H](CCC(=O)O)C(=O)N[C@@H](Cc1ccccc1)C(=O)NCC(N)=O)[C@@H](C)O)[C@@H](C)O` (Ac-CKTWTCYWHEFG-NH2) as the compound, how does the pIC50 read?
A: Its pIC50 is > 6.30.

Q: How did the pIC50 turn out when `CC(=O)NC1CCC/C=C\CCC(C(=O)N[C@@H](Cc2ccc(O)cc2)C(=O)N[C@@H](Cc2c[nH]c3ccccc23)C(=O)N[C@@H](CCCNC(=N)N)C(=O)N[C@@H](CCCCN)C(=O)N[C@@H](Cc2ccccc2)C(=O)NCC(=O)NCCOCC(=O)N[C@H](CCCCN)C(N)=O)NC(=O)[C@H](CCC(N)=O)NC(=O)[C@H](Cc2c[nH]c3ccccc23)NC(=O)[C@H]([C@@H](C)O)NC(=O)[C@H](CCCNC(=N)N)NC1=O` (some centres undefined) was run?
A: Its pIC50 is 5.00 to 6.00.

Q: How did the pIC50 turn out when `CC(=O)N[C@@H](CS)C(=O)N[C@@H](CCCNC(=N)N)C(=O)N[C@H](C(=O)N[C@@H](Cc1c[nH]c2ccccc12)C(=O)N[C@@H](CCC(N)=O)C(=O)N[C@@H](CS)C(=O)N[C@@H](Cc1ccc(O)cc1)C(=O)N[C@@H](Cc1c[nH]c2ccccc12)C(=O)N[C@@H](Cc1cnc[nH]1)C(=O)N[C@@H](CCC(=O)O)C(=O)N[C@@H](Cc1ccc(O)cc1)C(=O)NCC(N)=O)[C@@H](C)O` (Ac-CRTWQCYWHEYG-NH2) was run?
A: The pIC50 was > 6.30.

Q: How did the pIC50 turn out when `CC(=O)N[C@@H](CS)C(=O)N[C@@H](CCC(N)=O)C(=O)N[C@H](C(=O)N[C@@H](Cc1c[nH]c2ccccc12)C(=O)N[C@@H](CCC(N)=O)C(=O)N[C@@H](CS)C(=O)N[C@@H](Cc1ccc(O)cc1)C(=O)N[C@@H](Cc1c[nH]c2ccccc12)C(=O)N[C@@H](CC(C)C)C(=O)N[C@@H](CCC(=O)O)C(=O)N[C@@H](CC(N)=O)C(=O)NCC(N)=O)[C@@H](C)O` was run?
A: The pIC50 was > 6.30.

Q: How did the pIC50 turn out when `CC(=O)N[C@@H](CS)C(=O)N[C@@H](CCC(N)=O)C(=O)N[C@H](C(=O)N1CCC[C@H]1C(=O)N[C@@H](CCC(N)=O)C(=O)N[C@@H](CS)C(=O)N[C@@H](Cc1ccc(O)cc1)C(=O)N[C@@H](Cc1c[nH]c2ccccc12)C(=O)N[C@@H](CCC(C)C)C(=O)N[C@@H](CCC(=O)O)C(=O)N[C@@H](CC(N)=O)C(=O)NCC(N)=O)[C@@H](C)O` (Ac-CQTPQCYW[hLeu]ENG-NH2) was run?
A: Its pIC50 is < 5.00.

Q: How did the pIC50 turn out when `CC(=O)NCCCC[C@H](NC(=O)[C@](C)(CCCCN)NC(=O)[C@H](Cc1ccc2ccccc2c1)NC(=O)[C@@H](NC(=O)[C@H](CCC(N)=O)NC(=O)[C@H](Cc1c[nH]c2ccccc12)NC(=O)[C@@H](NC(=O)[C@H](CCC(N)=O)NC(=O)[C@@H](NC(C)=O)C(C)(C)S)[C@@H](C)O)C(C)(C)S)C(=O)N[C@@H](CC(N)=O)C(=O)NCC(N)=O` was run?
A: The pIC50 was < 5.00.

Q: `CC(=O)N[C@@H](CS)C(=O)N[C@H](C(=O)N[C@@H](CC(=O)O)C(=O)N[C@@H](Cc1c[nH]c2ccccc12)C(=O)N[C@H](C(=O)N[C@@H](CS)C(=O)N[C@@H](Cc1ccc(O)cc1)C(=O)N[C@@H](Cc1c[nH]c2ccccc12)C(=O)N[C@@H](Cc1cnc[nH]1)C(=O)N[C@H](C(=O)N[C@@H](Cc1ccccc1)C(=O)NCC(N)=O)[C@@H](C)O)C(C)C)[C@@H](C)O` was tested. Which pIC50 did it give?
A: Its pIC50 is > 6.30.
